Results taken from US20070049564A1 (Wyeth, priority 2005, published 2007).
In brackets after ≈: the same amount, converted by molar mass. Like-named read-outs stand apart in the source and are kept apart here.

Key:
E. faecalis GC 2265 = test: MIC, broth microdilution; settings: Enterococcus faecalis, GC2265, E. faecalis GC 2265
E. coli GC 4560 = test: MIC, broth microdilution; settings: Escherichia coli, GC4560, E. coli GC 4560
E. coli GC 6465 = test: MIC, broth microdilution; settings: Escherichia coli, GC6465, E. coli GC 6465
E. faecium GC 2243 = test: MIC, broth microdilution; settings: Enterococcus faecium, GC2243, E. faecium GC 2243
E. faecalis GC 4555 = test: MIC, broth microdilution; settings: Enterococcus faecalis, GC4555, E. faecalis GC 4555
S. agalactiae GC 4564 = test: MIC, broth microdilution
S. aureus GC 6467 = test: MIC, broth microdilution; settings: Staphylococcus aureus, GC6467, S. aureus GC 6467
E. coli GC 2203 = test: MIC, broth microdilution; settings: Escherichia coli, GC2203, E. coli GC 2203
S. aureus GC 4536 = test: MIC, broth microdilution; settings: Staphylococcus aureus, GC4536, S. aureus GC 4536
Description: (§1) Antimicrobial susceptibility testing. The in vitro activities of the antibiotics are determined by the broth microdilution method as recommended by the National Committee for Clinical Laboratory Standards (NCCLS) (1). Mueller-Hinton II broth (MHBII)(BBL Cockeysville, Md.) is the medium employed in the testing procedures. Microtiter plates containing serial dilutions of each antimicrobial agent are inoculated with each organism to yield the appropriate density (10^5 CFU/ml) in a 100 μl final volume. The plates are incubated for 18-22 hours at 35° C. in ambient air.
Representative compounds were first incubated in mouse serum for an hour prior to the in vitro testing against a panel of selected gram-positive and gram-negative bacteria strains. All compounds were also pre-incubated in water for an hour prior to testing as control. Representative compounds of Formula I were incubated in human serum prior to MIC determination.

E. coli GC 2272 = test: MIC, broth microdilution; settings: Escherichia coli, GC2272, E. coli GC 2272
E. coli GC 2231 = test: MIC, broth microdilution; settings: Escherichia coli, GC2231, E. coli GC 2231
Staph. = test: Range of MIC for Staph. strains, including MRSA; settings: Staphylococcus aureus, MRSA
E. coli GC 2232 = test: MIC, broth microdilution; settings: Escherichia coli, GC2232, E. coli GC 2232
S. typhimurium GC 2172 = test: MIC, broth microdilution; settings: Salmonella enterica, TYPHIMURIUM, S. typhimurium GC 2172
S. aureus GC 6469 = test: MIC, broth microdilution; settings: Staphylococcus aureus, GC6469, S. aureus GC 6469
S. pneumoniae* GC 4465 = test: MIC, broth microdilution; settings: Streptococcus pneumoniae, S. pneumoniae* GC 4465
S. aureus GC 6466 = test: MIC, broth microdilution; settings: Staphylococcus aureus, GC6466, S. aureus GC 6466
E. faecalis GC 2267 = test: MIC, broth microdilution; settings: Enterococcus faecalis, GC2267, E. faecalis GC 2267
Description: as §1
Representative compounds were first incubated in mouse serum for an hour prior to the in vitro testing against a panel of selected gram-positive and gram-negative bacteria strains. All compounds were also pre-incubated in water for an hour prior to testing as control.

E. coli GC 3226 = test: MIC, broth microdilution; settings: Escherichia coli, GC3226, E. coli GC 3226
E. coli = test: Range of MIC for E. coli strains; settings: Escherichia coli

Compound: CCCN(CC(=O)Nc1cc(N(C)C)c2c(c1O)C(=O)C1=C(O)[C@]3(O)C(=O)C(C(N)=O)=C(O)[C@@H](N(C)C)[C@@H]3C[C@@H]1C2)C(=O)OCOC(=O)Cc1ccccc1 [Example 11, ({[(2-{[(5aR,6aS,7S,10aS)-9-(aminocarbonyl)-4,7-bis(dimethylamino)-1,8,10a,11′-tetrahydroxy-10,12-dioxo-5,5a,6,6a,7,10,10a,12-octahydrotetracen-2-yl]amino}-2-oxoethyl)(propyl)amino]carbonyl}oxy)methyl phenylacetate]
- MIC (E. faecalis GC 2265; Mouse Serum pre-incubation): 2 µg/mL (≈ 2.62 µM)
- MIC (E. faecalis GC 2265; Water pre-incubation): 4 µg/mL (≈ 5.24 µM)
- MIC (E. coli GC 4560; Mouse Serum pre-incubation): 0.12 µg/mL (≈ 0.157 µM)
- MIC (E. coli GC 4560; Water pre-incubation): 0.12 µg/mL (≈ 0.157 µM)
- MIC (E. coli GC 6465; Mouse Serum pre-incubation): 8 µg/mL (≈ 10.5 µM)
- MIC (E. coli GC 6465; Water pre-incubation): > 64 µg/mL
- MIC (E. faecium GC 2243; Mouse Serum pre-incubation): 0.12 µg/mL (≈ 0.157 µM)
- MIC (E. faecium GC 2243; Water pre-incubation): 0.25 µg/mL (≈ 0.327 µM)
- MIC (E. faecalis GC 4555; Mouse Serum pre-incubation): 0.5 µg/mL (≈ 0.655 µM)
- MIC (E. faecalis GC 4555; Water pre-incubation): 1 µg/mL (≈ 1.31 µM)
- MIC (S. agalactiae GC 4564; S. agalactiae GC 4564, Water pre-incubation): <0.06 UG/ML
- MIC (S. agalactiae GC 4564; Streptococcus agalactiae, GC4564): < 0.06 µg/mL
- MIC (S. aureus GC 6467; Mouse Serum pre-incubation): 4 µg/mL (≈ 5.24 µM)
- MIC (S. aureus GC 6467; Water pre-incubation): 4 µg/mL (≈ 5.24 µM)
- MIC (E. coli GC 2203; Mouse Serum pre-incubation): 0.25 µg/mL (≈ 0.327 µM)
- MIC (E. coli GC 2203; Water pre-incubation): 16 µg/mL (≈ 20.9 µM)
- MIC (S. aureus GC 4536; Mouse Serum pre-incubation): 0.5 µg/mL (≈ 0.655 µM)
- MIC (S. aureus GC 4536; Water pre-incubation): 0.5 µg/mL (≈ 0.655 µM)
- MIC (E. coli GC 2272; Mouse Serum pre-incubation): 0.25 µg/mL (≈ 0.327 µM)
- MIC (E. coli GC 2272; Water pre-incubation): 4 µg/mL (≈ 5.24 µM)
- MIC (E. coli GC 2231; Mouse Serum pre-incubation): 2 µg/mL (≈ 2.62 µM)
- MIC (E. coli GC 2231; Water pre-incubation): 64 µg/mL (≈ 83.8 µM)
- MIC (Staph.; read-out: Range of MIC, Staph (Mouse Serum)): 0.25 to 4 µg/mL (≈ 0.327 to 5.24 µM)
- MIC (Staph.; read-out: Range of MIC, Staph (Water)): 0.25 to 4 µg/mL (≈ 0.327 to 5.24 µM)
- MIC (Staph.; read-out: Range of MIC, Staph. (mouse serum)): 0.25 to 4 µg/mL (≈ 0.327 to 5.24 µM)
- MIC (Staph.; read-out: Range of MIC, Staph. (water)): 0.25 to 4 µg/mL (≈ 0.327 to 5.24 µM)
- MIC (E. coli GC 2232; Mouse Serum pre-incubation): 1 µg/mL (≈ 1.31 µM)
- MIC (E. coli GC 2232; Water pre-incubation): 16 µg/mL (≈ 20.9 µM)
- MIC (S. typhimurium GC 2172; Mouse Serum pre-incubation): 4 µg/mL (≈ 5.24 µM)
- MIC (S. typhimurium GC 2172; Water pre-incubation): > 64 µg/mL
- MIC (S. aureus GC 6469; Mouse Serum pre-incubation): 4 µg/mL (≈ 5.24 µM)
- MIC (S. aureus GC 6469; Water pre-incubation): 4 µg/mL (≈ 5.24 µM)
- MIC (S. pneumoniae* GC 4465; Mouse Serum pre-incubation): < 0.06 µg/mL
- MIC (S. pneumoniae* GC 4465; Water pre-incubation): < 0.06 µg/mL
- MIC (S. aureus GC 6466; Mouse Serum pre-incubation): 0.25 µg/mL (≈ 0.327 µM)
- MIC (S. aureus GC 6466; Water pre-incubation): 0.25 µg/mL (≈ 0.327 µM)
- MIC (E. faecalis GC 2267; Mouse Serum pre-incubation): 2 µg/mL (≈ 2.62 µM)
- MIC (E. faecalis GC 2267; Water pre-incubation): 2 µg/mL (≈ 2.62 µM)
- MIC (E. coli GC 3226; Mouse Serum pre-incubation): 0.5 µg/mL (≈ 0.655 µM)
- MIC (E. coli GC 3226; Water pre-incubation): > 64 µg/mL
- MIC (E. coli; 20 h, read-out: Range of MIC, E. coli (Mouse Serum)): 0.25 to 2 µg/mL (≈ 0.327 to 2.62 µM)
- MIC (E. coli; read-out: Range of MIC, E. coli (mouse serum)): 0.25 to 2 µg/mL (≈ 0.327 to 2.62 µM)
